Assay results reported in ChEMBL document CHEMBL1201862, “PubChem BioAssay data set” (2004).
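Where inhibition never reached the appropriate level, the endpoint shown equals the highest concentration tested. Otherwise, values were interpolated linearly from a five-concentration, 48-hour dose response in 96-well plates. Here, GI50 denotes the concentration required for 50% inhibition of growth.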 Calls of active or inactive are those of the source. Cut-off read from the data, not from the text of the source: active = GI50 up to about 1.1 µM and inactive = higher.

How the values were obtained:
Experiment in all cases: NCI-60 cell line screen, 48 h
DU-145 = test system: DU-145
CCRF-CEM = test system: CCRF-CEM
NCI-H460 = test system: NCI-H460
PC-3 = test system: PC-3
SNB-75 = test system: SNB-75
NCI/ADR-RES = test system: NCI/ADR-RES
SF-268 = test system: SF-268
EKVX = test system: EKVX
RXF 393 = test system: RXF 393
OVCAR-8 = test system: OVCAR-8
UACC-257 = test system: UACC-257
HOP-92 = test system: HOP-92
BT-549 = test system: BT-549
SR = test system: SR
T47D = test system: T47D
KM12 = test system: KM12
SF-295 = test system: SF-295
786-0 = test system: 786-0
HCT-15 = test system: HCT-15
CAKI-1 = test system: CAKI-1
SF-539 = test system: SF-539
U-251 = test system: U-251
OVCAR-3 = test system: OVCAR-3
SW-620 = test system: SW-620
A498 = test system: A498
NCI-H522 = test system: NCI-H522
K562 = test system: K562
SNB-19 = test system: SNB-19
HCT-116 = test system: HCT-116
NCI-H226 = test system: NCI-H226
ACHN = test system: ACHN
HOP-62 = test system: HOP-62
HCC 2998 = test system: HCC 2998
SK-MEL-2 = test system: SK-MEL-2
MCF7 = test system: MCF7
Hs-578T = test system: Hs-578T
COLO 205 = test system: COLO 205
M14 = test system: M14
MDA-MB-435 = test system: MDA-MB-435
UACC-62 = test system: UACC-62
NCI-H23 = test system: NCI-H23
SN12C = test system: SN12C
MDA-N = test system: MDA-N
LOX IMVI = test system: LOX IMVI
TK-10 = test system: TK-10
HT-29 = test system: HT-29
OVCAR-5 = test system: OVCAR-5
SK-MEL-28 = test system: SK-MEL-28
SK-OV-3 = test system: SK-OV-3
IGROV-1 = test system: IGROV-1
MOLT-4 = test system: MOLT-4
Malme-3M = test system: Malme-3M
OVCAR-4 = test system: OVCAR-4
SK-MEL-5 = test system: SK-MEL-5
A549 = test system: A549
RPMI-8226 = test system: RPMI-8226
MDA-MB-231 = test system: MDA-MB-231
UO-31 = test system: UO-31

COc1cc(OCCN(C)C)c2[nH]c(C(=O)N3CC(CCl)c4ccc(N)cc43)cc2c1 (centres undefined)
GI50 (DU-145): 0.0142 µM (active)
GI50 (CCRF-CEM): 0.0199 µM (active)
GI50 (NCI-H460): 0.0147 µM (active)
GI50 (PC-3): 0.0241 µM (active)
GI50 (SNB-75): 0.0676 µM (active)
GI50 (NCI/ADR-RES): 0.0376 µM (active)
GI50 (SF-268): 0.0264 µM (active)
GI50 (EKVX): 0.108 µM (active)
GI50 (RXF 393): 0.0204 µM (active)
GI50 (OVCAR-8): 0.0432 µM (active)
GI50 (UACC-257): 0.0546 µM (active)
GI50 (HOP-92): 0.0596 µM (active)
GI50 (BT-549): 0.351 µM (active)
GI50 (SR): < 0.01 µM (active)
GI50 (T47D): 0.0312 µM (active)
GI50 (KM12): 0.0324 µM (active)
GI50 (SF-295): 0.0369 µM (active)
GI50 (786-0): 0.0202 µM (active)
GI50 (HCT-15): 0.0418 µM
GI50 (CAKI-1): 0.022 µM (active)
GI50 (SF-539): 0.0748 µM (active)
GI50 (U-251): 0.0432 µM (active)
GI50 (OVCAR-3): 0.0282 µM (active)
GI50 (SW-620): 0.0441 µM (active)
GI50 (A498): 0.201 µM (active)
GI50 (NCI-H522): 0.0139 µM (active)
GI50 (K562): 0.0239 µM (active)
GI50 (SNB-19): 0.114 µM (active)
GI50 (HCT-116): 0.0238 µM (active)
GI50 (NCI-H226): 0.0865 µM (active)
GI50 (ACHN): 0.0178 µM (active)
GI50 (HOP-62): 0.0164 µM (active)
GI50 (HCC 2998): 0.0265 µM (active)
GI50 (SK-MEL-2): 0.0381 µM (active)
GI50 (MCF7): 0.0139 µM (active)
GI50 (Hs-578T): 0.361 µM (active)
GI50 (COLO 205): 0.0395 µM (active)
GI50 (M14): 0.0632 µM (active)
GI50 (MDA-MB-435): 0.0475 µM (active)
GI50 (UACC-62): 0.0404 µM (active)
GI50 (NCI-H23): 0.0269 µM (active)
GI50 (SN12C): 0.0597 µM (active)
GI50 (MDA-N): 0.0643 µM (active)
GI50 (LOX IMVI): 0.021 µM (active)
GI50 (TK-10): 0.0973 µM (active)
GI50 (HT-29): < 0.0246 µM (active)
GI50 (OVCAR-5): 0.0656 µM (active)
GI50 (SK-MEL-28): 0.0628 µM (active)
GI50 (SK-OV-3): 1.04 µM (active)
GI50 (IGROV-1): 0.0148 µM (active)
GI50 (MOLT-4): < 0.01 µM (active)
GI50 (Malme-3M): 0.0904 µM (active)
GI50 (OVCAR-4): 0.029 µM (active)
GI50 (SK-MEL-5): 0.0342 µM (active)
GI50 (A549): 0.0377 µM (active)
GI50 (RPMI-8226): 0.0358 µM (active)
GI50 (MDA-MB-231): 0.0912 µM (active)
GI50 (UO-31): 0.0195 µM (active)

O=c1c2cc(Br)ccc2oc2nc3n(c(=O)c12)CCCS3
GI50 (DU-145): > 100 µM (inactive)
GI50 (CCRF-CEM): > 100 µM (inactive)
GI50 (NCI-H460): > 100 µM (inactive)
GI50 (PC-3): > 100 µM (inactive)
GI50 (SNB-75): > 100 µM (inactive)
GI50 (NCI/ADR-RES): > 100 µM (inactive)
GI50 (SF-268): > 100 µM (inactive)
GI50 (EKVX): > 100 µM (inactive)
GI50 (RXF 393): > 100 µM (inactive)
GI50 (OVCAR-8): > 100 µM (inactive)
GI50 (UACC-257): > 100 µM (inactive)
GI50 (HOP-92): > 100 µM (inactive)
GI50 (BT-549): > 100 µM (inactive)
GI50 (SR): > 100 µM (inactive)
GI50 (T47D): 30.1 µM (inactive)
GI50 (KM12): > 100 µM (inactive)
GI50 (SF-295): > 100 µM (inactive)
GI50 (786-0): > 100 µM (inactive)
GI50 (HCT-15): > 100 µM
GI50 (CAKI-1): > 100 µM (inactive)
GI50 (SF-539): > 100 µM (inactive)
GI50 (U-251): > 100 µM (inactive)
GI50 (OVCAR-3): > 100 µM (inactive)
GI50 (SW-620): > 100 µM (inactive)
GI50 (A498): > 100 µM (inactive)
GI50 (NCI-H522): > 100 µM (inactive)
GI50 (K562): > 100 µM (inactive)
GI50 (SNB-19): > 100 µM (inactive)
GI50 (HCT-116): > 100 µM (inactive)
GI50 (NCI-H226): > 100 µM (inactive)
GI50 (ACHN): > 100 µM (inactive)
GI50 (HOP-62): > 100 µM (inactive)
GI50 (HCC 2998): > 100 µM (inactive)
GI50 (SK-MEL-2): > 100 µM (inactive)
GI50 (MCF7): > 100 µM (inactive)
GI50 (Hs-578T): > 100 µM (inactive)
GI50 (COLO 205): > 100 µM (inactive)
GI50 (M14): > 100 µM (inactive)
GI50 (MDA-MB-435): > 100 µM (inactive)
GI50 (UACC-62): > 100 µM (inactive)
GI50 (NCI-H23): > 100 µM (inactive)
GI50 (SN12C): > 100 µM (inactive)
GI50 (MDA-N): > 100 µM (inactive)
GI50 (LOX IMVI): > 100 µM (inactive)
GI50 (TK-10): > 100 µM (inactive)
GI50 (OVCAR-5): > 100 µM (inactive)
GI50 (SK-MEL-28): > 100 µM (inactive)
GI50 (IGROV-1): > 100 µM (inactive)
GI50 (MOLT-4): > 100 µM (inactive)
GI50 (Malme-3M): > 100 µM (inactive)
GI50 (OVCAR-4): > 100 µM (inactive)
GI50 (SK-MEL-5): 47.5 µM (inactive)
GI50 (A549): > 100 µM (inactive)
GI50 (RPMI-8226): > 100 µM (inactive)
GI50 (MDA-MB-231): > 100 µM (inactive)
GI50 (UO-31): 39.2 µM (inactive)

CC1(C)C=Cc2c(cc3oc4ccc5c(c4c(=O)c3c2O)C=CC(C)(C)O5)O1
GI50 (DU-145): > 100 µM (inactive)
GI50 (CCRF-CEM): > 100 µM (inactive)
GI50 (PC-3): > 100 µM (inactive)
GI50 (NCI/ADR-RES): > 100 µM (inactive)
GI50 (SF-268): > 100 µM (inactive)
GI50 (EKVX): > 100 µM (inactive)
GI50 (RXF 393): > 100 µM (inactive)
GI50 (OVCAR-8): > 100 µM (inactive)
GI50 (UACC-257): > 100 µM (inactive)
GI50 (HOP-92): > 100 µM (inactive)
GI50 (BT-549): > 100 µM (inactive)
GI50 (SR): 75.3 µM (inactive)
GI50 (T47D): > 100 µM (inactive)
GI50 (KM12): > 100 µM (inactive)
GI50 (SF-295): > 100 µM (inactive)
GI50 (786-0): > 100 µM (inactive)
GI50 (HCT-15): > 100 µM
GI50 (CAKI-1): > 100 µM (inactive)
GI50 (SF-539): > 100 µM (inactive)
GI50 (U-251): > 100 µM (inactive)
GI50 (OVCAR-3): > 100 µM (inactive)
GI50 (SW-620): > 100 µM (inactive)
GI50 (A498): > 100 µM (inactive)
GI50 (NCI-H522): > 100 µM (inactive)
GI50 (SNB-19): > 100 µM (inactive)
GI50 (HCT-116): > 100 µM (inactive)
GI50 (NCI-H226): > 100 µM (inactive)
GI50 (ACHN): > 100 µM (inactive)
GI50 (HOP-62): > 100 µM (inactive)
GI50 (HCC 2998): > 100 µM (inactive)
GI50 (SK-MEL-2): > 100 µM (inactive)
GI50 (MCF7): > 100 µM (inactive)
GI50 (Hs-578T): > 100 µM (inactive)
GI50 (COLO 205): > 100 µM (inactive)
GI50 (M14): > 100 µM (inactive)
GI50 (MDA-MB-435): > 100 µM (inactive)
GI50 (UACC-62): > 100 µM (inactive)
GI50 (NCI-H23): > 100 µM (inactive)
GI50 (SN12C): > 100 µM (inactive)
GI50 (MDA-N): > 100 µM (inactive)
GI50 (LOX IMVI): > 100 µM (inactive)
GI50 (TK-10): > 100 µM (inactive)
GI50 (HT-29): > 100 µM (inactive)
GI50 (OVCAR-5): > 100 µM (inactive)
GI50 (SK-MEL-28): > 100 µM (inactive)
GI50 (SK-OV-3): > 100 µM (inactive)
GI50 (IGROV-1): > 100 µM (inactive)
GI50 (MOLT-4): > 100 µM (inactive)
GI50 (Malme-3M): > 100 µM (inactive)
GI50 (OVCAR-4): > 100 µM (inactive)
GI50 (SK-MEL-5): > 100 µM (inactive)
GI50 (A549): > 100 µM (inactive)
GI50 (RPMI-8226): > 100 µM (inactive)
GI50 (MDA-MB-231): > 100 µM (inactive)
GI50 (UO-31): > 100 µM (inactive)
